Test results taken from patent publication US20050003008A1, “Method of in vivo drug targeting to solid tumors via acoustically triggered drug delivery in polymeric micelles” (priority 1997, published 2005).
Values after ≈ are worked out from the molar mass of the structure shown. Each block holds one compound with its values, some of them ahead of it.

How the values were obtained:
HL-60 cells [1] = settings: combination of micellar delivery and ultrasonication; cited from earlier work
[2] = Ultrasound-triggered drug release from PLURONIC P-105 micelles; format: physicochemical
Excerpt: The measurements of the degree of drug release are based on the decrease of DOX fluorescence intensity when DOX is transferred from the hydrophobic environment of micelle cores to the aqueous environment. An argon-ion laser beam of 488 nm was directed to a drug-containing cuvette to excite fluorescence. The emissions were collected using a fiber optic collector and filtered to remove the excitation wavelength. The emissions were quantified using a photodetector, digitized with a 12-bit A/D converter, and stored in a Macintosh computer for further analysis.
Digitized fluorescence intensity data were analyzed to calculate the percent of the drug release from micelles. A fluorescence intensity of a 10 μg/ml DOX solution in PBS (IPBS) was measured first; the PBS solution was then carefully sucked out of the cuvette and replaced with a 10 μg/ml DOX solution in 10% PLURONIC P-105 micelles. Fluorescence of this solution (Imic) was measured, and a difference Imic−IPBS was assumed to correspond to a […] drug release from micelles. Then, ultrasound was switched on, and DOX fluorescence under sonication (Ius) was recorded; if sonication induced partial drug release from micelles into the aqueous environment, Ius was lower than Imic; the “ultrasound on”-“ultrasound off” cycles were repeated several times to check reproducibility. The length of each ultrasound exposure cycle was 1 to 2 minutes. […] The degree of drug release (DDR) was calculated as follows: DDR={[Imic−Ius]/[Imic−IPBS]}×100

A2780 tumor = assay: In vivo DOX uptake by sonicated A2780 tumor
DNA = assay: Drug intercalation into DNA (fluorescence drop); format: binding; settings: drug introduced from micellar solution
Excerpt: Ruboxyl and doxorubicin encapsulation in PLURONIC micelles restricted not only drug interaction with the cells, but also drug interaction with cell components, e.g. DNA.

[3] = system: ovarian carcinoma drug-sensitive A2780 cells; assay: Intracellular DOX uptake by A2780 cells under 1 MHz ultrasound (flow cytometry); format: cell-based
Description: Fluorescence histograms of the A2780 cells incubated or sonicated in the presence of DOX are shown. The initial concentration of cells ranged from 3×10^6 to 5×10^6 cells/ml as determined using a hemacytometer. After exposure to DOX (10 μg/ml to 50 μg/ml in various experiments) and ultrasound (15 to 30 s), cells were counted again to measure the degree of sonolysis, upon which they were centrifuged, washed with PBS, fixed with a 3% formalin or 2.5% glutaraldehide, and analyzed by flow cytometry. Fluorescence histograms were recorded with a FACScan flow cytometer (Beckton Dickinson) and analyzed using CellQuest software supplied by the manufacturer. A minimum of 10,000 events was analyzed to generate each histogram.
The experiments on the effect of ultrasound on the intracellular DOX uptake with and without micelles were always conducted in parallel, at the same day and using the same batch of the cells.

[4] = system: drug-sensitive ovarian carcinoma A2780 cells; assay: Growth inhibition of drug-sensitive ovarian carcinoma cells (IC75); format: cell-based
Description: (§1) It should be noted that because of the cytostatic action of micelles, the inhibitory concentration IC50 values for drugs become meaningless; for example, upon 3-hour incubation with a drug-free 10% P-105 micelles followed by three days culturing in a PLURONIC-free RPMI 1640 medium, the growth inhibition of both sensitive and resistant cells exceeded 50%. […] For cases like this it would be more informative to compare, e.g., IC75 values.

[5] = system: MDR ovarian carcinoma A2780/ADR cells; assay: Growth inhibition / cell kill of MDR ovarian carcinoma cells with Pluronic and ultrasound; format: cell-based; settings: 10-min sonication by 67-kHz ultrasound
HL-60 cells [6] = assay: Intracellular drug uptake by HL-60 cells (lysate fluorescence); format: cell-based
Description: Intracellular uptake of doxorubicin and ruboxyl was measured using a fluorescence technique wherein compounds were excited at 488 nm and technical emission spectra were recorded at 510-700 nm. Two sets of samples were studied, incubated, and sonicated. Ultrasound was generated by a Sonicor SC100 sonication bath operating at 70 kHz and 37° C. Power density was controlled by adjusting the input voltage and was measured with a hydrophone.
For the first set of samples, the cells were incubated at 37° C. with doxorubicin or ruboxyl, which were either dissolved in the RPMI medium or PBS, or the drugs were solubilized in PLURONIC P-105 solutions of various concentrations. For the second set of samples, the cells were sonicated by 70 kHz ultrasound at 37° C. to assess the effect of ultrasound on the drug uptake from molecular and micellar solutions. After being incubated/sonicated with and without the drug, the cells were centrifuged, washed twice with cold PBS, resuspended in PBS, and the fluorescence spectra of cell suspensions were recorded. The fluorescence intensity of the untreated cells was subtracted from that of the drug-treated cells. Because drug fluorescence within the cells was substantially quenched, drug uptake was quantified by lysing the cells by incubating them with 1 wt % SDS solution for 1-2 hours at 37° C. This process transferred the drug from cellular components to SDS micelles. […] Upon the completion of cell lysis, fluorescence spectra of the lysates were recorded. To quantify the concentration of lysed cells, cell lysates were filtered through 0.2 μm filters, and their optical densities were measured by protein absorbance at 280 nm (OD 280 nm). […] The fluorescence intensity of lysates ws normalized by OD 280 nm.

A2780 cells = assay: Survival of ovarian carcinoma-bearing mice; format: in vivo; settings: DOX 3 mg/kg intraperitoneally in PLURONIC P-105 micelles, sonication one hour after injection
Description: A2780 cells (1×10^6) were inoculated intraperitoneally. DOX in PBS or PLURONIC P-105 micelles was injected intraperitoneally the next day after cell inoculation. Sonication of the abdominal region was performed one hour after DOX injection.

[7] = system: MDR ovarian carcinoma A2780/ADR cells; assay: Growth inhibition / cell kill of MDR ovarian carcinoma cells with Pluronic and ultrasound; format: cell-based; settings: for IC75: A2780/ADR
Description: as §1
As an example, when the MDR cell were incubated with drug-free 10% PLURONIC micelles for three hours, upon which they were sonicated for 10 minutes by 69-kHz ultrasound at 3.2 W/cm^2 and cultured for 72 hours, the growth of the MDR cell dropped to forty percent of the unsonicated non-incubated control.
For the MDR cells, PLURONIC and ultrasound effects are especially important. At the absence of micelles, only about forty percent of the MDR cells are killed at DOX or Rb concentrations as high as 100 μg/ml. However, when the MDR cells were incubated with 5 μg/ml DOX for three hours in the presence of a unimeric Pluronic solution followed by a 10-minute sonication by 69-kHz ultrasound at 3.2 W/cm^2, sixty six percent of the cells died upon subsequent cell culturing vs. fifty three percent without ultrasound; only fifteen percent of the MDR cells die upon incubation with 5 μg/ml DOX without Pluronic and ultrasound treatment.
Ultrasound-induced increased intracellular uptake was accompanied by a dramatic sensitization of the MDR cells to the action of DOX (FIG. 10). […] Even without ultrasound, IC50 of DOX in the MDR ovarian carcinoma cells dropped 50-fold in the presence of PLURONIC unimers and micelles.

[8] = system: leukosis, La, P-388, and L-1210; solid tumors; settings: P-388, L-1210 in mice, solid tumors in rats; cited from earlier work
[9] = Effects of PLURONIC micelles and ultrasound on drug uptake and cytotoxicity, other drugs; format: cell-based
Excerpt: It is important to note that the effects of PLURONIC micelles and ultrasound on drug uptake and cytotoxicity described above for DOX were also observed for another anthracycline drug, Ruboxyl. […] This implies that the new modality of drug delivery described here will have general applicability to a wide variety of drugs and drug delivery systems.

[10] = Drug partitioning between PLURONIC micelles and polystyrene latex particles; format: physicochemical
Description: To study solute release from PLURONIC micelles, the partitioning of the solute between the micelles and the surface of polystyrene latex particles was investigated. A spin probe, DSTA, or the drug, ruboxyl, was solubilized in PLURONIC P-105 solutions of various concentrations. A suspension of polystyrene latex particles (average diameter 0.9 μm, 50 μl/ml) was incubated with 1 ml of DSTA or ruboxyl solution in PLURONIC P-105, and depletion of the probe in the supernatant was measured by the EPR (for DSTA) or fluorescence (for ruboxyl) technique upon polystyrene particle separation.
An important question pertinent to this research was how tightly the solubilized drug was associated with PLURONIC micelles. To investigate this problem, ruboxyl adsorption on polystyrene latex particles was measured from molecular solutions of ruboxyl in PBS and from micellar PLURONIC solutions. Ruboxyl readily adsorbs onto polystyrene surfaces. About 90% of the drug is transferred onto polystyrene surface from ruboxyl solutions in PBS. PLURONIC micelles, however, compete for ruboxyl with polystyrene surfaces; only about 40% of ruboxyl solubilized in PLURONIC micelles (20 wt % solutions of PLURONIC P-105) is transferred onto the polystyrene surface, the remainder being retained within the PLURONIC micelles.

[11] = system: breast and colon carcinomas and bone sarcoma; settings: cited from earlier work
[12] = PLURONIC concentration 0.1%, below CMC
[13] = drug sequestered in dense PLURONIC P-105 micelles vs free drug
[14] = absence of micelles, drug concentration 100 μg/ml

power density required for 10% DOX release ([2]; 1.0-MHz ultrasound): 7.2 W/cm^2 | power density required for 10% DOX release ([2]; 20-kHz ultrasound): 0.058 W/cm^2 | power density required for 10% DOX release ([2]; 67-kHz ultrasound): 2.8 W/cm^2 | DOX uptake by other organs under ultrasound (A2780 tumor; 3-MHz ultrasound): not affected
SMILES: COc1cccc2c1C(=O)c1c(O)c3c(c(O)c1C2=O)C[C@@](O)(C(=O)CO)C[C@@H]3O[C@H]1C[C@H](N)[C@H](O)[C@H](C)O1 [DOX, Doxorubicin]
effective drug dose (HL-60 cells [1]): substantial decrease | DOX uptake by cells of the sonicated tumor (A2780 tumor; DOX 6 mg/kg intravenously, 1 MHz or 3 MHz ultrasound 1.7 W/cm2): dramatically enhanced | drug-DNA interaction (DNA): lower drug-DNA interaction | DOX uptake, sonicated vs unsonicated cells ([3]; sonicated 15 s vs unsonicated incubated 30 min, same DOX concentration): significantly higher | intracellular uptake of DOX ([3]; sonication at 1 MHz, from PBS or RPMI 1640): substantially increased | IC75 ([4]; A2780, P-105 0.1% (unimers)): 1.3 µg/mL (≈ 2.39 µM) | IC75 ([4]; A2780, P-105 10% (micelles)): 1.3 µg/mL (≈ 2.39 µM) | IC75 ([4]; A2780, RPMI (no Pluronic)): 1.3 µg/mL (≈ 2.39 µM) | fraction of MDR cells highly resistant to DOX [5]: about 30% | drug uptake by HL-60 cells (HL-60 cells [6]; [12]): somewhat enhanced | drug uptake by HL-60 cells (HL-60 cells [6]; [13]): substantial decrease | life span vs conventional drug introduction (A2780 cells): much longer | MDR cells died ([7]; 5 μg/ml DOX three hours in unimeric Pluronic solution, 10-minute sonication 69-kHz 3.2 W/cm^2): sixty six | MDR cells died ([7]; 5 μg/ml DOX three hours in unimeric Pluronic solution, without ultrasound): fifty three | MDR cells died ([7]; 5 μg/ml DOX without Pluronic and ultrasound treatment): fifteen | IC75 ([7]; P-105 0.1% (unimers)): 12 ± 2 µg/mL (≈ 22.1 µM) | IC75 ([7]; P-105 10% (micelles)): 16 ± 2 µg/mL (≈ 29.4 µM) | IC75 ([7]; RPMI (no Pluronic)): >100 µg/mL | MDR cells killed ([7]; PLURONIC micelle and ultrasound, DOX concentration 0.78 μg/ml): 100% | MDR cells killed [7, 14]: about forty | fraction of MDR cells highly resistant to DOX ([7]; conventional medium, DOX 50 μg/ml): about 55% | fraction of MDR cells highly resistant to DOX ([7]; in the presence of PLURONIC micelles): completely eliminated | drop of IC50 of DOX ([7]; presence of PLURONIC unimers and micelles, without ultrasound): 50 fold

drug transferred onto polystyrene surface ([10]; from ruboxyl solutions in PBS): About 90% | drug transferred onto polystyrene surface ([10]; solubilized in PLURONIC micelles (20 wt % PLURONIC P-105)): about 40%
SMILES: COc1cccc2c1C(=O)c1c(O)c3c(c(O)c1C2=O)C[C@@](O)(/C(C)=N/N=C1CC(C)(C)N(O)C(C)(C)C1)C[C@@H]3O[C@H]1C[C@H](N)[C@H](O)[C@H](C)O1.Cl [Rb, ruboxyl]
anti-tumor activity [8]: high | effects of PLURONIC micelles and ultrasound on drug uptake and cytotoxicity [9]: also observed | clinical efficacy ([11]; breast and colon carcinomas and bone sarcoma): effective | cardiotoxicity ([11]; clinical trials): reduced | drug-DNA interaction (DNA): lower drug-DNA interaction | IC75 ([4]; A2780, P-105 10% (micelles)): 0.9 µg/mL | IC75 ([4]; A2780, RPMI (no Pluronic)): 1.5 µg/mL | drug uptake by HL-60 cells (HL-60 cells [6]; [12]): somewhat enhanced | drug uptake by HL-60 cells (HL-60 cells [6]; [13]): substantial decrease | IC75 ([7]; P-105 10% (micelles)): 17 ± 3 µg/mL | IC75 ([7]; RPMI (no Pluronic)): >100 µg/mL | MDR cells killed [7, 14]: about forty

SMILES: CC(=O)O[C@H]1C(=O)[C@@]2(C)[C@H]([C@H](OC(=O)c3ccccc3)[C@]3(O)C[C@H](OC(=O)[C@H](O)[C@@H](NC(=O)c4ccccc4)c4ccccc4)C(C)=C1C3(C)C)[C@]1(OC(C)=O)CO[C@@H]1C[C@@H]2O [taxol]
effects of PLURONIC micelles and ultrasound on drug uptake and cytotoxicity [9]: promising results
